Laboratory results as given in ChEMBL document CHEMBL4613204, “Lysine demethylase 5B (KDM5B): A potential anti-cancer drug target” (Eur J Med Chem, 2019).
pIC50: −log10 of the molar value. Blank lines part the entries; values can stand above or below the compound they belong to.

Tests used:
[1] = target: T1, Lysine-specific demethylase 5B (Homo sapiens, UniProt Q9UGL1); assay: Inhibition of KDM5B (unknown origin)
[2] = target: T1, Lysine-specific demethylase 5B; assay: Inhibition of KDM5B (1 to 755 residues) (unknown origin)
[3] = target: Lysine-specific demethylase 5C (Homo sapiens, UniProt P41229); assay: Inhibition of KDM5C (1 to 789 residues) (unknown origin)
[4] = tested on: MCF7; assay: Antiproliferative activity against human MCF7 cells assessed as growth inhibition; type: functional
[5] = tested on: MDA-MB-231; assay: Antiproliferative activity against human MDA-MB-231 cells assessed as growth inhibition; type: functional
[6] = Selectivity ratio of GI50 for human […] cells; type: functional

T1 sequence (Q9UGL1 whole entry, the tested form may be a part): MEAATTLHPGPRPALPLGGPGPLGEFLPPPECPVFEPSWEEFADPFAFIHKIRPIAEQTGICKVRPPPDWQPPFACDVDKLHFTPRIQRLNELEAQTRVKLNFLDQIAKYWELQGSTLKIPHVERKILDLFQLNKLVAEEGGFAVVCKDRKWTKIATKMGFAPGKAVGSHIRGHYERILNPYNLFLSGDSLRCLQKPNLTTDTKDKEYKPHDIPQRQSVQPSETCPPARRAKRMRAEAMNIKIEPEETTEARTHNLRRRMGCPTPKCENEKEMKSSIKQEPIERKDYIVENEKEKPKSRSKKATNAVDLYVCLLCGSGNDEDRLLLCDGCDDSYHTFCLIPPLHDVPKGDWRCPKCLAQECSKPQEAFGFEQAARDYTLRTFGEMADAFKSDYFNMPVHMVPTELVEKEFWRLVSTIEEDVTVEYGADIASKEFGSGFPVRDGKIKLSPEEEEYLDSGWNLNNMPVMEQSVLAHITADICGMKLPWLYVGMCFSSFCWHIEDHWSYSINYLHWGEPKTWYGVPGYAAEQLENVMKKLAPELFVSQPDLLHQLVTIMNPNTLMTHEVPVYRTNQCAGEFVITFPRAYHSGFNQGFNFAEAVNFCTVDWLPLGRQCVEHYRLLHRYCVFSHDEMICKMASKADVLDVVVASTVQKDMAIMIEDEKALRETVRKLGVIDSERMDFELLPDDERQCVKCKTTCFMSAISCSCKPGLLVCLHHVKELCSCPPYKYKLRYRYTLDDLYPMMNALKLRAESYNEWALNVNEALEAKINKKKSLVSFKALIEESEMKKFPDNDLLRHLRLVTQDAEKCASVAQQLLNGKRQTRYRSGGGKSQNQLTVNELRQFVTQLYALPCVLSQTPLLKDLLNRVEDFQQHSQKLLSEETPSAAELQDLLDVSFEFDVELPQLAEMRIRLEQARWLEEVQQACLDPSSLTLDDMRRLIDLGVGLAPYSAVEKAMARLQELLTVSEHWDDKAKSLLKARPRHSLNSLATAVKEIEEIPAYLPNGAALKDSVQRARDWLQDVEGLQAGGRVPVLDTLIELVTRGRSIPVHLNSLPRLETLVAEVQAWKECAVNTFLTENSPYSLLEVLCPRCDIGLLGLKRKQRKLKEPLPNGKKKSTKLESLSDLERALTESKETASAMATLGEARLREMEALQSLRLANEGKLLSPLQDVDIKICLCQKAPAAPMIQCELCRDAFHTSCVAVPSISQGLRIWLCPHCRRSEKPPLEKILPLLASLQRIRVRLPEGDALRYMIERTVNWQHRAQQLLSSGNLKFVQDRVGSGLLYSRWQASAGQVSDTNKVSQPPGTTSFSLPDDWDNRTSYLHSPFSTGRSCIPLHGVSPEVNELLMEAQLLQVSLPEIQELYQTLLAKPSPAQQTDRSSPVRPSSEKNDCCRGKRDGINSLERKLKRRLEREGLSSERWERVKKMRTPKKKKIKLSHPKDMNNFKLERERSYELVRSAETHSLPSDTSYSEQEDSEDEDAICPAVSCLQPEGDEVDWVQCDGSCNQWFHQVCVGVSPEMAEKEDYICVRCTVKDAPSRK
Lysine-specific demethylase 5C, sequence (P41229 whole entry, the tested form may be a part): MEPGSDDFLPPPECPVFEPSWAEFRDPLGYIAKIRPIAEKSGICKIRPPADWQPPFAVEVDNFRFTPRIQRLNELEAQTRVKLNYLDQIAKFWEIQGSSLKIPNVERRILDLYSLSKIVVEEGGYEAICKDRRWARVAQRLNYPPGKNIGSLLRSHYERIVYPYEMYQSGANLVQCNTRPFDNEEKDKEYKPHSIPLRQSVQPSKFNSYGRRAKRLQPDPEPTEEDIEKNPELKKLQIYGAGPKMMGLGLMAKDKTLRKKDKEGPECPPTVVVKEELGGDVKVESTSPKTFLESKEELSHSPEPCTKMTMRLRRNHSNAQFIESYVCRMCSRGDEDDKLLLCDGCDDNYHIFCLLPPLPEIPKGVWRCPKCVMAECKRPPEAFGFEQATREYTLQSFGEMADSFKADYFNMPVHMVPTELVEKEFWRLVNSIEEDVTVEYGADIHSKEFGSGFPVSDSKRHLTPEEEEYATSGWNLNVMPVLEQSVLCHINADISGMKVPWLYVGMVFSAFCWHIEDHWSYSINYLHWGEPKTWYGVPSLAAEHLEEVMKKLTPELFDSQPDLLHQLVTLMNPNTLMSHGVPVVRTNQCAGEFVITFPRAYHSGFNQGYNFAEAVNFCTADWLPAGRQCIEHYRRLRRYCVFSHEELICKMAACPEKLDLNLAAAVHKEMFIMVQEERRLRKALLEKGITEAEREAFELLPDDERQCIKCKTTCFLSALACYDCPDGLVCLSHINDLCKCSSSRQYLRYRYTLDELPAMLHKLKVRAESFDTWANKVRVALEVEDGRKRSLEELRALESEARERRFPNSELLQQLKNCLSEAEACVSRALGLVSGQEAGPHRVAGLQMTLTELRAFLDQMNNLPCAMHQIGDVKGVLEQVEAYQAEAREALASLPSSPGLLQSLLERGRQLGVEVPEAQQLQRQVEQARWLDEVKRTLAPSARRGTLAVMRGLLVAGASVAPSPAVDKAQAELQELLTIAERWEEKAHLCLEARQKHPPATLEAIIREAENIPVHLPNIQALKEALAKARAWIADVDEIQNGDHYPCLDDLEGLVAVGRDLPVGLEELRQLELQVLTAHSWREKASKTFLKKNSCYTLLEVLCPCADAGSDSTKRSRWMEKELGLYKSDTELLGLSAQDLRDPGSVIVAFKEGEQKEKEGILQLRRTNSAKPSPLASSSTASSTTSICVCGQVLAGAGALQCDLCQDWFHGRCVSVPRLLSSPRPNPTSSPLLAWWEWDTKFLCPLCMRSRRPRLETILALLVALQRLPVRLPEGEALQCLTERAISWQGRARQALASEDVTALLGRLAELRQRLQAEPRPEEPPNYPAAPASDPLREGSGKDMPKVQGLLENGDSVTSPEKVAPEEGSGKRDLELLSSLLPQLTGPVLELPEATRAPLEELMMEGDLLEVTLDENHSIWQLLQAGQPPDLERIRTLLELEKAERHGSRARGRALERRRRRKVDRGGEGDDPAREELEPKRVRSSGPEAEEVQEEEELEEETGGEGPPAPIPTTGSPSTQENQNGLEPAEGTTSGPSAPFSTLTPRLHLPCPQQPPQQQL

Structure (SMILES): O=C(O)CCC(=O)C(=O)O [ALPHA-KETOGLUTARIC ACID]
pIC50 [1]: 3.10

Structure (SMILES): Cc1ccc(-n2sc3ccccc3c2=O)cc1
pIC50 [1]: 5.52

Further lines, with some results ahead:

pIC50 [1]: 7.70
Structure (SMILES): CCOC(=O)c1c(O)c2ccncc2[nH]c1=O

pIC50 [2]: 5.30
pIC50 [3]: 4.38
GI50 [4]: 22 nM
GI50 [5]: 300 nM
Structure (SMILES): Clc1ccc(N/N=C(\c2ccccc2)c2ccccn2)nc1
Selectivity ratio [6]: 14

pIC50 [1]: 8.00
Structure (SMILES): CC(C)c1c(-c2ccccc2)[nH]c2c(C#N)cnn2c1=O
